# From patent publication US20210077500A1, “PIKFYVE INHIBITORS FOR CANCER THERAPY” (Al Therapeutics, Inc., priority 2019, published 2021)
# Key:
# GP5d = assay: CellTiter-Glo cell viability, single agent and combination (Chou-Talalay CI); type: cell-based; conditions: Homo sapiens, 120 h, GP5d (colorectal, KRAS G12D), average of two independent experiments
# Protocol: (§1) For assessment of synergistic activity, cells of each cell line were seeded at optimal density for growth onto different 96-well plates and placed into a humidified incubator (37° C., 5% CO2) to adhere overnight. The following day, the cells on each plate were treated either with a single agent (a PIKfyve inhibitor, e.g., apilimod, or a RAS pathway inhibitor) or with a combination of the two agents. Cells were treated for 120 hours and then assayed for cell viability using CellTiter-Glo™ (Promega).
# (§2) Using this method, a CI value is calculated based on the effects of each drug alone on cell viability (single agent treatment) and the effects of each drug combination, across all combinations of both agents tested. The single agent treatments consisted of 8 different concentrations of each single agent, obtained by serial dilution. The concentrations were chosen to provide a range above and below the IC50 value of the single agent (if achieved) in a given cell line.
# (§3) D1 alone and D2 alone were estimated from Hill's equation:
# LS411N = assay: as above; type: cell-based; conditions: LS411N (colorectal, BRAF V600E); 120 h; average of two independent experiments
# Protocol: as §1, §2, §3
# BxPC3 = assay: CellTiter-Glo cell viability, single agent; type: cell-based; conditions: Homo sapiens, BXPC-3; BxPC3 (pancreatic, BRAF delV487-P492); 120 h; average of two independent experiments
# Protocol: The cell lines used in this study were derived from lung cancers, colorectal cancers, pancreatic cancer and melanoma, as shown in Table 2 below.
# (§4) For assessment of synergistic activity, cells of each cell line were seeded at optimal density for growth onto different 96-well plates and placed into a humidified incubator (37° C., 5% CO2) to adhere overnight. […] Cells were treated for 120 hours and then assayed for cell viability using CellTiter-Glo™ (Promega).
# NCI-H820 = assay: 5-day viability assay; type: cell-based; conditions: 120 h, NCI-H820 (NSCLC, MET AMP), two independent experiments
# SBC-5 = assay: 5-day viability assay; type: cell-based; conditions: Homo sapiens, 120 h, SBC-5 (SCLC, MET AMP), two independent experiments
# NCI-H596 = assay: 5-day viability assay; type: cell-based; conditions: Homo sapiens, 120 h, NCI-H596 (NSCLC, MET Exon 14), two independent experiments
# NCI-H1993 = assay: 5-day viability assay; type: cell-based; conditions: Homo sapiens, 120 h, NCI-H1993 (NSCLC, MET AMP), two independent experiments
# NCI-H2023 = assay: 5-day viability assay; type: cell-based; conditions: 120 h, NCI-H2023 (NSCLC, Autocrine), two independent experiments
# Hs746T = assay: 5-day viability assay; type: cell-based; conditions: Homo sapiens, 120 h, Hs746T (gastric, AMP, Exon 14), two independent experiments
# SNU-5 = assay: 5-day viability assay; type: cell-based; conditions: Homo sapiens, 120 h, SNU-5 (gastric, MET AMP), two independent experiments
# COLO-205 = assay: 5-day CellTiter-Glo viability sensitivity screen; type: cell-based; conditions: Homo sapiens, 120 h; COLO-205 colorectal; 5-day viability assays; read-out: IC50 (sensitive/resistant cut-off)
# SW1116 = assay: 5-day CellTiter-Glo viability sensitivity screen; type: cell-based; conditions: Homo sapiens, SW 1116, 120 h; SW1116 colorectal (KRAS p.G12A); 5-day viability assays; read-out: IC50 (sensitive/resistant cut-off)
# HCT116 = assay: 5-day CellTiter-Glo viability sensitivity screen; type: cell-based; conditions: Homo sapiens, HCT-116, 120 h; HCT116 colorectal (KRAS p.G13D); 5-day viability assays; read-out: IC50 (sensitive/resistant cut-off)
# SW620 = assay: 5-day CellTiter-Glo viability sensitivity screen; type: cell-based; conditions: Homo sapiens, SW-620, 120 h; SW620 colorectal (KRAS p.G12V); 5-day viability assays; read-out: IC50 (sensitive/resistant cut-off)
# SW480 = assay: 5-day CellTiter-Glo viability sensitivity screen; type: cell-based; conditions: Homo sapiens, 120 h; SW480 colorectal (KRAS p.G12V); 5-day viability assays; read-out: IC50 (sensitive/resistant cut-off)
# DLD1 = assay: 5-day CellTiter-Glo viability sensitivity screen; type: cell-based; conditions: Homo sapiens, DLD-1, 120 h; DLD1 colorectal (KRAS p.G13D); 5-day viability assays; read-out: IC50 (sensitive/resistant cut-off)
# MDST8 = assay: 5-day CellTiter-Glo viability sensitivity screen; type: cell-based; conditions: 120 h; MDST8 colorectal; 5-day viability assays; read-out: IC50 (sensitive/resistant cut-off)
# SW1417 = assay: 5-day CellTiter-Glo viability sensitivity screen; type: cell-based; conditions: Homo sapiens, 120 h; SW1417 colorectal; 5-day viability assays; read-out: IC50 (sensitive/resistant cut-off)
# COLO-741 = assay: 5-day CellTiter-Glo viability sensitivity screen; type: cell-based; conditions: Homo sapiens, 120 h; COLO-741 colorectal; 5-day viability assays; read-out: IC50 (sensitive/resistant cut-off)
# [1] = tested on: colorectal cancer cell lines; assay: Sensitivity screen, share of sensitive cell lines; type: cell-based; conditions: nine out of 14 cell lines; 5-day CellTiter-Glo viability
# [2] = tested on: cell lines harboring MET pathway activation; assay: 5-day viability assay, share of sensitive cell lines; type: cell-based; conditions: 6/10 cell lines
# EBC-1 = assay: 5-day viability assay, single agent and combination (Chou-Talalay CI); conditions: Homo sapiens, EBC-1, 120 h, read-out: Average IC50, EBC-1 (NSCLC, MET AMP); 5-day viability assay; two independent experiments
# Protocol: as §1, §2, §3
# (§5) Here, we utilized cells harboring MET pathway activation, particularly the EBC-1, MKN45 and Caki-1 cell lines. In addition to MET inhibitors, since MET activates the RAS pathway, we also assayed for synergistic activity with inhibitors of the RAS pathway in these cells.
# MKN45 = assay: as above; conditions: Homo sapiens, MKN-45, 120 h, read-out: Average IC50, MKN45 (gastric, MET AMP); 5-day viability assay; two independent experiments
# Protocol: as §1, §2, §3, §5
# Caki-1 = assay: as above; conditions: Homo sapiens, CAKI-1, 120 h, read-out: Average IC50
# Protocol: as §1, §2, §3, §5
# A549 = assay: CellTiter-Glo cell viability, single agent and combination (Chou-Talalay CI); conditions: Homo sapiens, A549, 120 h, read-out: IC50 (single agent)
# Protocol: as §4, §2
# NCI-H1944 = assay: as above; conditions: Homo sapiens, NCI-H1944, 120 h, read-out: IC50 (single agent)
# Protocol: as §4, §2
# NCI-H2030 = assay: as above; conditions: Homo sapiens, NCI-H2030, 120 h, read-out: IC50 (single agent)
# Protocol: as §4, §2
# NCI-H1792 = assay: as above; conditions: Homo sapiens, NCI-H1792, 120 h, read-out: IC50 (single agent)
# Protocol: as §4, §2
# NCI-H2122 = assay: as above; conditions: Homo sapiens, NCI-H2122, 120 h, read-out: IC50 (single agent)
# Protocol: as §4, §2
# A427 = assay: as above; conditions: Homo sapiens, A-427, 120 h, read-out: IC50 (single agent)
# Protocol: as §4, §2
# RKO cells = assay: as above; conditions: Homo sapiens
# Protocol: as §1, §2
# In each experiment for a given cell line, the combination treatments consisted of 8×8 or 64 different combination treatments.
# Using this method, combinations with CI values>1 are considered antagonistic, CI values=1 are considered additive, and CI values<1 are considered synergistic.
# A375 = assay: as above; conditions: Homo sapiens, A-375, 120 h, read-out: IC50 (single agent)
# Protocol: as §4, §2
# [3] = read-out: Viability (normalized)
smiles,measurement,setting,value
Cc1cccc(/C=N/Nc2cc(N3CCOCC3)nc(OCCc3ccccn3)n2)c1 [apilimod],IC50,GP5d,209 nM
same,IC50,LS411N,89 nM
same,IC50,BxPC3,> 400 nM
same,IC50,NCI-H820,103 nM
same,IC50,SBC-5,108 nM
same,IC50,NCI-H596,304 nM
same,IC50,NCI-H1993,877 nM
same,IC50,NCI-H2023,73 nM
same,IC50,Hs746T,108 nM
same,IC50,SNU-5,862 nM
same,IC50,COLO-205,< 200 nM
same,IC50,SW1116,< 200 nM
same,IC50,HCT116,< 200 nM
same,IC50,SW620,< 200 nM
same,IC50,SW480,< 200 nM
same,IC50,DLD1,< 200 nM
same,IC50,MDST8,> 200 nM
same,IC50,SW1417,> 200 nM
same,IC50,COLO-741,> 200 nM
same,colorectal cancer cell lines sensitive to apilimod (average IC50 less than 200 nM),[1],64%
same,cell lines harboring MET pathway activation sensitive to apilimod (IC50 less than 200 nM),[2],60%
same,IC50,EBC-1,113 nM
same,IC50,MKN45,191 nM
same,IC50,Caki-1,373 nM
same,IC50,A549,49 nM
same,IC50,NCI-H1944,36 nM
same,IC50,NCI-H2030,228 nM
same,IC50,NCI-H1792,> 400 nM
same,IC50,NCI-H2122,> 400 nM
same,IC50,A427,80 nM
same,IC50,"RKO cells; 120 h, read-out: IC50 (single agent), RKO (colorectal, BRAF V600E), 120 h, average of two independent experiments",> 200 nM
same,viability at 0.023 µM,RKO cells; [3],98%
same,viability at 0.035 µM,RKO cells; [3],93%
same,viability at 0.053 µM,RKO cells; [3],96%
same,viability at 0.079 µM,RKO cells; [3],93%
same,viability at 0.119 µM,RKO cells; [3],97%
same,viability at 0.178 µM,RKO cells; [3],70%
same,viability at 0.267 µM,RKO cells; [3],53%
same,viability at 0.4 µM,RKO cells; [3],44%
same,IC50,A375,104 nM
